Results published in US11867689B2, “Engineered renal tissues, arrays thereof, and methods of making the same” (Organovo, Inc., priority 2014, dated 2024).

Tests used:
3D renal tubule model [1] = format: cell-based, human
Excerpt: To reduce the thickness and cellularity of the interstitial layer, the cell ratio was changed to 50% fibroblasts/50% HUVEC the concentration of the cells was 1.25×10^8 cells/mL. The interstitial layer of the renal proximal tubule model is composed of renal fibroblasts and HUVECs in Novogel® 2.0. […] E-cadherin (green) at the lateral membranes between RPTECs corresponds to tight junctions (FIGS. 9A, B and C). Further, the basement membrane corresponding to the interstitial layer produces collagen (FIGS. 9A and B; stained with red). H & E staining is shown (FIG. 10A), and brush borders are indicated (FIG. 11A, arrows). Trichrome staining indicates collagen secretion (FIGS. 10B, blue and 11B, arrows), and CD31 staining indicates the presence of HUVEC networks (FIG. 12, asterisks). […] As a positive control, hTERT-RPTEC cells cultured as a monolayer in 2D were assessed. As a negative control, bioprinted renal interstitial tissues without epithelium were also assayed to verify that the detected GGT activity was epithelial-specific. At culture day 3, 10, 14, 21, or 28, 2D hTERT-RPTEC, 3D interstitium tissues, or 3D bioprinted tubule tissues were homogenized and assessed for functional GGT enzymatic activity using a colorimetric assay available from Sigma-Aldrich. […]

[2] = tested on: interstitial tissue alone
[3] = tested on: 3D renal tubule model (interstitial tissue and epithelial tissue); format: cell-based, human
[4] = tested on: epithelial layer comprising primary cells (070615-RPTEC); test: GGT activity, renal tubule model with primary epithelial layer; format: cell-based, human; conditions: primary cells (070615-RPTEC) compared with hTERT-RPTEC; FIG. 23B
Method: To assess the maturity and function of the epithelial component of the 3D bioprinted tubule model, tissues were homogenized and assayed for gamma glutamyl-transferase (GGT) activity. […] As a positive control, hTERT-RPTEC cells cultured as a monolayer in 2D were assessed. […] At culture day 3, 10, 14, 21, or 28, 2D hTERT-RPTEC, 3D interstitium tissues, or 3D bioprinted tubule tissues were homogenized and assessed for functional GGT enzymatic activity using a colorimetric assay available from Sigma-Aldrich.

3D renal tubule model [5] = test: histology of treated 3D renal tubule models; format: cell-based, human; conditions: 50 ng/mL TGFβ; FIG. 22D

Row | Compound | GGT activity (3D renal tubule model [1]) | toxicity by alamarBlue assay [2] | toxicity by alamarBlue assay [3] | sensitivity in the GGT assay, primary versus immortalized cells [4] | Masson's trichrome staining histology (fibrosis) (3D renal tubule model [5])
1 | C[C@@H]1[C@H](O)[C@@H](C)/C=C/C=C/C=C/C=C/C=C/C=C/C=C/[C@H](O[C@@H]2O[C@H](C)[C@@H](O)[C@H](N)[C@@H]2O)C[C@@H]2O[C@](O)(C[C@@H](O)C[C@@H](O)[C@H](O)CC[C@@H](O)C[C@@H](O)CC(=O)O[C@H]1C)C[C@H](O)[C@H]2C(=O)O [AmpB, amphotericin B] | dose dependent reduction in GGT activity | resistant | dose dependent cytotoxicity | – | –
2 | N.N.[Cl][Pt][Cl] [cisplatin] | dose dependent reduction in GGT activity | – | – | enhanced sensitivity | –
3 | TGFβ: listed among common cytotoxic agents; treatment at 50 ng/mL increased fibrosis | – | – | – | – | increase in fibrosis without the overt cell death
